From patent publication US6706663B2, “Herbicidal 3-heterocyclic substituted benzisothiazole and benzisoxazole compounds” (Wyeth, priority 2000, dated 2004)

How the values were obtained:
[1] = system: ABUTH (Abutilon theophrasti); assay: Postemergence herbicidal evaluation; assay type: in vivo, Medic.; settings: postemergence
In short: (§1)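 Seedlings grown about two weeks in flats, sprayed, then kept under standard greenhouse care. Rated visually 4–5 weeks after treatment on a 0–9 scale (stand, vigour, malformation, size, chlorosis, overall appearance) relative to untreated control; repeat tests averaged.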

[2] = system: AMBEL (Ambrosia artemisifolia); assay: Postemergence herbicidal evaluation; assay type: in vivo, L.; settings: postemergence
In short: as §1

[3] = system: CASOB (Cassia obtusifolia); assay: Postemergence herbicidal evaluation; assay type: in vivo, L.; settings: postemergence
In short: as §1

[4] = system: CHEAL (Chenopodium album); assay: Postemergence herbicidal evaluation; assay type: in vivo, L.; settings: postemergence
In short: as §1

GALAP (Galium aparine) = assay: Postemergence herbicidal evaluation; assay type: in vivo; settings: postemergence
In short: as §1

[5] = system: ECHCG (Echinochloa crus-galli); assay: Postemergence herbicidal evaluation; assay type: in vivo, (L.) Beau; settings: postemergence
In short: as §1

[6] = system: GLXMAW (Soybean, Williams); assay: Postemergence herbicidal evaluation; assay type: in vivo, Glycine max, (L.) Merr. cv Williams; settings: postemergence
In short: as §1

ORYSAT (Rice, Tebonnet) [7] = assay: Postemergence herbicidal evaluation; assay type: in vivo, Oryza sativa, (L.) Tebonnet; settings: postemergence
In short: as §1

ZEAMX (Corn, Field) = assay: Postemergence herbicidal evaluation; assay type: in vivo, Zea mays, L.; settings: postemergence
In short: as §1

[8] = system: ABUTH (Abutilon theophrasti); assay: Preemergence herbicidal evaluation; assay type: in vivo, Medic.; settings: rated 4-5 weeks after treatment
[9] = system: AMBEL (Ambrosia artemisifolia); assay: Preemergence herbicidal evaluation; assay type: in vivo, L.; settings: rated 4-5 weeks after treatment
In short: (§2)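 Visual 0–9 rating versus control (stand, vigor, malformation, size, chlorosis, overall appearance), scored four to five weeks post-treatment. Preemergence spray of aqueous acetone solution onto freshly seeded soil cups; plants grown under conventional greenhouse care.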

[10] = system: CASOB (Cassia obtusifolia); assay: Preemergence herbicidal evaluation; assay type: in vivo, L.; settings: rated 4-5 weeks after treatment
In short: as §2

[11] = system: CHEAL (Chenopodium album); assay: Preemergence herbicidal evaluation; assay type: in vivo, L.; settings: rated 4-5 weeks after treatment
In short: as §2

[12] = system: IPOHE (Ipomoea hederacea); assay: Preemergence herbicidal evaluation; assay type: in vivo, (L.) Jacq.; settings: rated 4-5 weeks after treatment
ORYSAT (Rice, Tebonnet) [13] = assay: Preemergence herbicidal evaluation; assay type: in vivo, Oryza sativa, (L.) Tebonnet; settings: rated 4-5 weeks after treatment
[14] = system: TRZAWR (Wheat, Winter, cv Riband); assay: Preemergence herbicidal evaluation; assay type: in vivo, Triticum aestivum; settings: rated 4-5 weeks after treatment
In short: as §2

[15] = system: CYPSE (Cyperus serotinus); assay: Flooded paddy, preemergence weed control; assay type: in vivo, Rottb.; settings: rated 3-4 weeks after treatment, 0-9 rating scale
In short: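 Herbicidal effect was scored visually on a 0–9 scale against an untreated control 3–4 weeks after treatment. Compounds were applied preemergence as 50/50 v/v aqueous/acetone mixtures into flood water (1.5–3 cm deep over silt loam), at roughly 0.0080 to 0.1250 kg/ha active ingredient.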

[16] = system: SAGPY (Sagittaria pygmaea); assay: Flooded paddy, preemergence weed control; assay type: in vivo, L.; settings: rated 3-4 weeks after treatment, 0-9 rating scale
In short: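 Greenhouse paddy test, preemergence. Seeds planted in the top 0.5 cm of silt loam soil, which remained flooded at 1.5–3 cm depth. Scored 0-9 by visual comparison with control.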

ORYSAT (Rice, Tebonnet) [17] = assay: Flooded paddy, post-transplant rice tolerance; assay type: in vivo, Oryza sativa, (L.) Tebonnet; settings: flooded paddy, post-transplant rice, rated 3-4 weeks after treatment, 0-9 rating scale
In short: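 Steps: transplant two ten-day-old seedlings into silt loam; flood to 1.5-3 cm above soil; apply herbicide post-transplant; maintain water on greenhouse benches; rate stand, vigor, malformation, size and chlorosis on a 0-9 visual scale versus control.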

Structure (SMILES): Cn1c(C(F)(F)F)cc(=O)n(-c2ccc3snc(C4OC(C)(C)C(C)(C)O4)c3c2)c1=O [Compound 56, 1-methyl-3-[3-(4,4,5,5-tetramethyl-1,3-dioxolan-2-yl)-1,2-benzisothiazol-5-yl]-6-(trifluoromethyl)uracil]
- ABUTH herbicidal rating ([1]; rate 0.0320 kg/ha): 9.0
- ABUTH herbicidal rating ([1]; rate 0.0620 kg/ha): 9.0
- AMBEL herbicidal rating ([2]; rate 0.0320 kg/ha): 9.0
- AMBEL herbicidal rating ([2]; rate 0.0620 kg/ha): 9.0
- CASOB herbicidal rating ([3]; rate 0.0320 kg/ha): 3.0
- CASOB herbicidal rating ([3]; rate 0.0620 kg/ha): 7.0
- CHEAL herbicidal rating ([4]; rate 0.0320 kg/ha): 7.0
- CHEAL herbicidal rating ([4]; rate 0.0620 kg/ha): 9.0
- GALAP herbicidal rating (GALAP (Galium aparine); rate 0.0320 kg/ha): 3.0
- GALAP herbicidal rating (GALAP (Galium aparine); rate 0.0620 kg/ha): 3.0
- ECHCG herbicidal rating ([5]; rate 0.0320 kg/ha): 2.0
- ECHCG herbicidal rating ([5]; rate 0.0620 kg/ha): 4.0
- GLXMAW herbicidal rating ([6]; rate 0.0320 kg/ha): 6.0
- GLXMAW herbicidal rating ([6]; rate 0.0620 kg/ha): 6.5
- ORYSAT herbicidal rating (ORYSAT (Rice, Tebonnet) [7]; rate 0.0320 kg/ha): 3.5
- ORYSAT herbicidal rating (ORYSAT (Rice, Tebonnet) [7]; rate 0.0620 kg/ha): 4.5
- ZEAMX herbicidal rating (ZEAMX (Corn, Field); rate 0.0320 kg/ha): 5.0
- ZEAMX herbicidal rating (ZEAMX (Corn, Field); rate 0.0620 kg/ha): 5.5
- Preemergence herbicidal rating ABUTH ([8]; Rate 0.0620 kg/ha): 9.0
- Preemergence herbicidal rating ABUTH ([8]; Rate 0.1250 kg/ha): 9.0
- Preemergence herbicidal rating ABUTH ([8]; Rate 0.2500 kg/ha): 9.0
- Preemergence herbicidal rating AMBEL ([9]; Rate 0.0620 kg/ha): 9.0
- Preemergence herbicidal rating AMBEL ([9]; Rate 0.1250 kg/ha): 9.0
- Preemergence herbicidal rating AMBEL ([9]; Rate 0.2500 kg/ha): 9.0
- Preemergence herbicidal rating CASOB ([10]; Rate 0.0620 kg/ha): 4.5
- Preemergence herbicidal rating CASOB ([10]; Rate 0.1250 kg/ha): 5.5
- Preemergence herbicidal rating CASOB ([10]; Rate 0.2500 kg/ha): 9.0
- Preemergence herbicidal rating CHEAL ([11]; Rate 0.0620 kg/ha): 9.0
- Preemergence herbicidal rating CHEAL ([11]; Rate 0.1250 kg/ha): 9.0
- Preemergence herbicidal rating CHEAL ([11]; Rate 0.2500 kg/ha): 9.0
- Preemergence herbicidal rating IPOHE ([12]; Rate 0.0620 kg/ha): 7.5
- Preemergence herbicidal rating IPOHE ([12]; Rate 0.1250 kg/ha): 7.5
- Preemergence herbicidal rating IPOHE ([12]; Rate 0.2500 kg/ha): 9.0
- Preemergence herbicidal rating ORYSAT (ORYSAT (Rice, Tebonnet) [13]; Rate 0.0620 kg/ha): 5.0
- Preemergence herbicidal rating ORYSAT (ORYSAT (Rice, Tebonnet) [13]; Rate 0.1250 kg/ha): 6.0
- Preemergence herbicidal rating ORYSAT (ORYSAT (Rice, Tebonnet) [13]; Rate 0.2500 kg/ha): 6.0
- Preemergence herbicidal rating TRZAWR ([14]; Rate 0.0620 kg/ha): 6.0
- Preemergence herbicidal rating TRZAWR ([14]; Rate 0.1250 kg/ha): 6.0
- Preemergence herbicidal rating TRZAWR ([14]; Rate 0.2500 kg/ha): 7.0
- herbicidal rating, CYPSE ([15]; rate 0.0080 kg/ha): 0.0
- herbicidal rating, CYPSE ([15]; rate 0.0320 kg/ha): 5.5
- herbicidal rating, CYPSE ([15]; rate 0.1250 kg/ha): 9.0
- herbicidal rating, SAGPY ([16]; rate 0.0080 kg/ha): 0.0
- herbicidal rating, SAGPY ([16]; rate 0.0320 kg/ha): 0.0
- herbicidal rating, SAGPY ([16]; rate 0.1250 kg/ha): 6.3
- herbicidal rating, ORYSAT (rice tolerance) (ORYSAT (Rice, Tebonnet) [17]; rate 0.0080 kg/ha): 1.0
- herbicidal rating, ORYSAT (rice tolerance) (ORYSAT (Rice, Tebonnet) [17]; rate 0.0320 kg/ha): 4.3
- herbicidal rating, ORYSAT (rice tolerance) (ORYSAT (Rice, Tebonnet) [17]; rate 0.1250 kg/ha): 8.0

Structure (SMILES): CC1COC(c2nsc3ccc(-n4c(=O)cc(C(F)(F)F)n(C)c4=O)cc23)O1 (centres unmarked) [Compound 57, 1-methyl-3-[3-(4-methyl-1,3-dioxolan-2-yl)-1,2-benzisothiazol-5-yl]-6-(trifluoromethyl)uracil]
- ABUTH herbicidal rating ([1]; rate 0.0320 kg/ha): 9.0
- ABUTH herbicidal rating ([1]; rate 0.0620 kg/ha): 9.0
- AMBEL herbicidal rating ([2]; rate 0.0320 kg/ha): 9.0
- AMBEL herbicidal rating ([2]; rate 0.0620 kg/ha): 9.0
- CASOB herbicidal rating ([3]; rate 0.0320 kg/ha): 7.0
- CASOB herbicidal rating ([3]; rate 0.0620 kg/ha): 9.0
- CHEAL herbicidal rating ([4]; rate 0.0320 kg/ha): 9.0
- CHEAL herbicidal rating ([4]; rate 0.0620 kg/ha): 7.0
- GALAP herbicidal rating (GALAP (Galium aparine); rate 0.0320 kg/ha): 6.0
- GALAP herbicidal rating (GALAP (Galium aparine); rate 0.0620 kg/ha): 9.0
- ECHCG herbicidal rating ([5]; rate 0.0320 kg/ha): 3.0
- ECHCG herbicidal rating ([5]; rate 0.0620 kg/ha): 3.0
- GLXMAW herbicidal rating ([6]; rate 0.0320 kg/ha): 7.0
- GLXMAW herbicidal rating ([6]; rate 0.0620 kg/ha): 8.5
- ORYSAT herbicidal rating (ORYSAT (Rice, Tebonnet) [7]; rate 0.0320 kg/ha): 4.0
- ORYSAT herbicidal rating (ORYSAT (Rice, Tebonnet) [7]; rate 0.0620 kg/ha): 4.5
- ZEAMX herbicidal rating (ZEAMX (Corn, Field); rate 0.0320 kg/ha): 5.0
- ZEAMX herbicidal rating (ZEAMX (Corn, Field); rate 0.0620 kg/ha): 5.5
- Preemergence herbicidal rating ABUTH ([8]; Rate 0.0620 kg/ha): 9.0
- Preemergence herbicidal rating ABUTH ([8]; Rate 0.1250 kg/ha): 9.0
- Preemergence herbicidal rating ABUTH ([8]; Rate 0.2500 kg/ha): 9.0
- Preemergence herbicidal rating AMBEL ([9]; Rate 0.0620 kg/ha): 9.0
- Preemergence herbicidal rating AMBEL ([9]; Rate 0.1250 kg/ha): 9.0
- Preemergence herbicidal rating AMBEL ([9]; Rate 0.2500 kg/ha): 9.0
- Preemergence herbicidal rating CASOB ([10]; Rate 0.0620 kg/ha): 5.5
- Preemergence herbicidal rating CASOB ([10]; Rate 0.1250 kg/ha): 7.5
- Preemergence herbicidal rating CASOB ([10]; Rate 0.2500 kg/ha): 9.0
- Preemergence herbicidal rating CHEAL ([11]; Rate 0.0620 kg/ha): 9.0
- Preemergence herbicidal rating CHEAL ([11]; Rate 0.1250 kg/ha): 9.0
- Preemergence herbicidal rating CHEAL ([11]; Rate 0.2500 kg/ha): 9.0
- Preemergence herbicidal rating IPOHE ([12]; Rate 0.0620 kg/ha): 9.0
- Preemergence herbicidal rating IPOHE ([12]; Rate 0.1250 kg/ha): 9.0
- Preemergence herbicidal rating IPOHE ([12]; Rate 0.2500 kg/ha): 9.0
- Preemergence herbicidal rating ORYSAT (ORYSAT (Rice, Tebonnet) [13]; Rate 0.0620 kg/ha): 8.0
- Preemergence herbicidal rating ORYSAT (ORYSAT (Rice, Tebonnet) [13]; Rate 0.1250 kg/ha): 8.0
- Preemergence herbicidal rating ORYSAT (ORYSAT (Rice, Tebonnet) [13]; Rate 0.2500 kg/ha): 9.0
- Preemergence herbicidal rating TRZAWR ([14]; Rate 0.0620 kg/ha): 8.0
- Preemergence herbicidal rating TRZAWR ([14]; Rate 0.1250 kg/ha): 8.0
- Preemergence herbicidal rating TRZAWR ([14]; Rate 0.2500 kg/ha): 9.0
- herbicidal rating, CYPSE ([15]; rate 0.0320 kg/ha): 9.0
- herbicidal rating, CYPSE ([15]; rate 0.1250 kg/ha): 9.0
- herbicidal rating, SAGPY ([16]; rate 0.0080 kg/ha): 0.0
- herbicidal rating, SAGPY ([16]; rate 0.0320 kg/ha): 4.5
- herbicidal rating, SAGPY ([16]; rate 0.1250 kg/ha): 7.5
- herbicidal rating, ORYSAT (rice tolerance) (ORYSAT (Rice, Tebonnet) [17]; rate 0.0080 kg/ha): 3.0
- herbicidal rating, ORYSAT (rice tolerance) (ORYSAT (Rice, Tebonnet) [17]; rate 0.0320 kg/ha): 8.0
- herbicidal rating, ORYSAT (rice tolerance) (ORYSAT (Rice, Tebonnet) [17]; rate 0.1250 kg/ha): 9.0
